Measurements reported in the supplement of paper PMC11451515.

System: NOMO1
Assay: cell viability relative to DMSO control; higher = less cytotoxic
Conditions: 48 h
Outline: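 NOMO1 or SEM (500 cells/well) or P12-Ichikawa (1000 cells/well) leukemia cells were adapted for at least four passages in each medium. They were seeded in 1536-well plates (5 μl) and pin-dosed with library compounds in DMSO over an 11-point threefold series, 47 μM to 0.79 nM. CellTiter-Glo One luminescence was read after 48 h at 37°C. Viability is the per-plate percentage relative to DMSO wells, with cell-free wells as background.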

[1] = HPLM + 10% dialyzed FBS, 0.000781 µM
[2] = HPLM + 10% dialyzed FBS, 0.00234 µM
[3] = HPLM + 10% dialyzed FBS, 0.00702 µM
[4] = HPLM + 10% dialyzed FBS, 0.0211 µM
[5] = HPLM + 10% dialyzed FBS, 0.0632 µM
[6] = HPLM + 10% dialyzed FBS, 0.19 µM
[7] = HPLM + 10% dialyzed FBS, 0.569 µM
[8] = HPLM + 10% dialyzed FBS, 1.71 µM
[9] = HPLM + 10% dialyzed FBS, 5.12 µM
[10] = HPLM + 10% dialyzed FBS, 15.4 µM
[11] = HPLM + 10% dialyzed FBS, 46.1 µM
[12] = RPMI 5 mM glucose + 10% FBS, 0.000781 µM
[13] = RPMI 5 mM glucose + 10% FBS, 0.00234 µM
[14] = RPMI 5 mM glucose + 10% FBS, 0.00702 µM
[15] = RPMI 5 mM glucose + 10% FBS, 0.0211 µM
[16] = RPMI 5 mM glucose + 10% FBS, 0.0632 µM
[17] = RPMI 5 mM glucose + 10% FBS, 0.19 µM
[18] = RPMI 5 mM glucose + 10% FBS, 0.569 µM
[19] = RPMI 5 mM glucose + 10% FBS, 1.71 µM
[20] = RPMI 5 mM glucose + 10% FBS, 5.12 µM
[21] = RPMI 5 mM glucose + 10% FBS, 15.4 µM
[22] = RPMI 5 mM glucose + 10% FBS, 46.1 µM
[23] = RPMI 5 mM glucose + 10% dialyzed FBS, 0.000781 µM
[24] = RPMI 5 mM glucose + 10% dialyzed FBS, 0.00234 µM
[25] = RPMI 5 mM glucose + 10% dialyzed FBS, 0.00702 µM
[26] = RPMI 5 mM glucose + 10% dialyzed FBS, 0.0211 µM
[27] = RPMI 5 mM glucose + 10% dialyzed FBS, 0.0632 µM
[28] = RPMI 5 mM glucose + 10% dialyzed FBS, 0.19 µM
[29] = RPMI 5 mM glucose + 10% dialyzed FBS, 0.569 µM
[30] = RPMI 5 mM glucose + 10% dialyzed FBS, 1.71 µM
[31] = RPMI 5 mM glucose + 10% dialyzed FBS, 5.12 µM
[32] = RPMI 5 mM glucose + 10% dialyzed FBS, 15.4 µM
[33] = RPMI 5 mM glucose + 10% dialyzed FBS, 46.1 µM

SMILES	cell viability [1]	cell viability [2]	cell viability [3]	cell viability [4]	cell viability [5]	cell viability [6]	cell viability [7]	cell viability [8]	cell viability [9]	cell viability [10]	cell viability [11]	cell viability [12]	cell viability [13]	cell viability [14]	cell viability [15]	cell viability [16]	cell viability [17]	cell viability [18]	cell viability [19]	cell viability [20]	cell viability [21]	cell viability [22]	cell viability [23]	cell viability [24]	cell viability [25]	cell viability [26]	cell viability [27]	cell viability [28]	cell viability [29]	cell viability [30]	cell viability [31]	cell viability [32]	cell viability [33]
CC(Cc1ccc(O)c(O)c1)(NN)C(=O)O (stereo not given)	104%	109%	102%	103%	117%	113%	107%	99.3%	115%	121%	92.3%	114%	118%	113%	126%	115%	103%	105%	109%	112%	110%	106%	114%	106%	129%	128%	123%	106%	103%	99.8%	116%	106%	94.7%
CO[C@H]1/C=C/O[C@@]2(C)Oc3c(C)c(O)c4c(O)c(c(/C=N/N5CCN(C)CC5)c(O)c4c3C2=O)NC(=O)/C(C)=C\C=C\[C@H](C)[C@H](O)[C@@H](C)[C@@H](O)[C@@H](C)[C@H](OC(C)=O)[C@@H]1C												111%	123%	117%	127%	129%	118%	125%	123%	111%	102%	98.5%	118%	119%	129%	115%	122%	117%	104%	112%	119%	96.1%	79.6%
COc1cccc2c(NCc3ccccc3)nc(-n3c(N)nc4ccccc43)nc12	85.6%	106%	94.9%	110%	129%	105%	115%	107%	107%	97%	18.8%	92.8%	96.2%	105%	105%	117%	107%	106%	101%	101%	102%	16.7%	91.2%	96.2%	119%	111%	111%	108%	103%	112%	100%	97.2%	23.3%
CCC[C@@H](C=O)NC(=O)[C@H](CC(C)C)NC(=O)[C@H](CC(C)C)NC(=O)OCc1ccccc1	113%	121%	121%	138%	138%	139%	138%	75.4%	19.2%	7.83%	5.86%	101%	110%	119%	135%	126%	127%	127%	35.3%	13.9%	8.52%	7.79%	115%	130%	124%	131%	143%	143%	132%	93.1%	32.4%	9.45%	7.3%
C/C(=C\c1csc(C)n1)[C@@H]1C[C@@H]2O[C@]2(C)CCC[C@H](C)[C@H](O)[C@@H](C)C(=O)C(C)(C)[C@@H](O)CC(=O)O1	22.6%	28.6%	32%	27.8%	29.6%	27.8%	29.6%	35%	25.2%	27.6%	31.3%	14.1%	18.3%	20.6%	18.3%	20.3%	15.9%	16.8%	19.2%	15.3%	14.5%	14.9%	18.1%	22.2%	22.9%	39.2%	23.9%	24.5%	21.8%	21.4%	21.9%	25%	20%
Cc1cc(SCc2sc(-c3ccc(C(F)(F)F)cc3)nc2C)ccc1OCC(=O)O	102%	113%	97.5%	124%	109%	110%	104%	92.3%	102%	94.8%	78.1%	100%	97.1%	85.9%	99.1%	90.3%	95%	90.7%	102%	86.6%	91.4%	81.9%	93.2%	95.1%	101%	108%	92.2%	102%	99.6%	97.7%	101%	89.2%	83.1%
Cn1cc(-c2cnn3c(N)c(Br)c([C@@H]4CCCNC4)nc23)cn1	99.8%	107%	111%	102%	101%	99%	93.2%	47.7%	21.8%	15.8%	27.6%	99.7%	88%	88.8%	85.2%	89.7%	89.3%	84.2%	60.3%	16.4%	11.3%	12.8%	78.7%	93.1%	84.1%	98.2%	95.3%	92.5%	81.2%	33.4%	20.1%	16.5%	19%
CC(=O)Oc1cc2c(s1)CCN(C(C(=O)C1CC1)c1ccccc1F)C2.Cl (stereo not given)	90.3%	106%	104%	117%	98.3%	107%	116%	64.7%	58%	42.7%	16%	98.5%	92.7%	95.5%	94.3%	97.3%	108%	91.1%	76.8%	64.4%	51.7%	18.7%	88%	95.6%	100%	101%	90.4%	99.6%	103%	86.4%	62.1%	40.3%	25.1%
CC1(C)Cc2c(sc(NC(=S)NC(=O)c3ccccc3)c2C(=O)O)CO1	102%	107%	100%	117%	120%	114%	115%	112%	114%	94.5%	95.1%	115%	111%	105%	101%	105%	96.6%	118%	106%	115%	101%	91.5%	87.7%	102%	96.3%	108%	109%	103%	121%	109%	101%	101%	102%
OC1=CC2=C(C(=O)\C=C(/O2)C3=CC=CC=C3)C(=C1O)O	93.6%	102%	117%	107%	111%	106%	108%	92.2%	72.6%	82.8%	83.1%	118%	105%	105%	115%	96.8%	111%	103%	111%	84%	52.4%	57.4%	113%	108%	110%	107%	102%	112%	106%	98.6%	96%	55.2%	64.9%
COc1ccccc1OCCNCC(O)COc1cccc2[nH]c3ccccc3c12 (stereo not given)	132%	124%	116%	121%	123%	131%	139%	117%	139%	123%	116%	116%	112%	114%	119%	112%	103%	113%	113%	118%	113%	102%	123%	120%	119%	132%	114%	128%	144%	118%	129%	124%	112%
Cn1c(=O)c2[nH]cnc2n(C)c1=O	120%	111%	121%	122%	92.5%	115%	120%	106%	110%	102%	84.8%	114%	103%	103%	104%	94%	100%	101%	113%	95.8%	99%	93.6%	101%	108%	104%	100%	108%	96.3%	92.2%	99.7%	106%	97.5%	87.7%
COC(=O)Nc1ccc(-c2nc(N3CCOCC3)c3cnn(C4CCN(Cc5cccnc5)CC4)c3n2)cc1	117%	117%	132%	108%	88.6%	76.4%	70.3%	70.6%	26.3%	19.4%	9.7%	106%	117%	119%	105%	110%	92.4%	88.7%	82.6%	45.4%	32.4%	17.6%											
O=C(O)CCNc1cc(N2CCc3ccccc3CC2)nc(-c2ccccn2)n1	111%	133%	115%	138%	140%	123%	111%	116%	117%	94.5%	75.9%	121%	105%	107%	111%	104%	128%	115%	106%	116%	105%	92.9%	121%	123%	124%	128%	127%	121%	136%	111%	117%	97.3%	96.1%
